# Source: patent US20170290871A1, “METHOD OF TREATING HYPERTENSION” (KING SAUD UNIVERSITY, priority 2016, published 2017)
# Legend:
# Type in all cases: in vivo, Sprague-Dawley rats
# [1] = tested on: hypertension induced rats; test: Blood pressure and heart rate of salt-sucrose hypertension induced rats; conditions: captopril 20 mg/kg daily for three weeks, mean ± SD of 6
# Method: (§1) Male Sprague-Dawley rats were divided into nine groups of six rats each and treated daily for three consecutive weeks. High salt-sucrose solution was given to the rats to induce hypertension in them. […] At the end of the experimental period, arterial blood pressure and heart rate of all rats were recorded. The rats were sacrificed by decapitation and the free running blood was collected for analysis. The systolic blood pressure (SBP), the diastolic blood pressure (DBP) and the heart rate (HR) of the rats were measured by the tail cuff every day during the entire period of study in control, drug and extract treated animals.
# [2] = tested on: hypertension induced rats; test: Serum marker enzymes (AST, ALT, ALP) of hypertension induced rats
# Method: as §1, with “animals. For the estimation of alanine transaminase (ALT), aspartate transaminase (AST), alkaline phosphatase (ALP), total cholesterol, triglycerides, low-density lipoprotein (LDL) and high density lipoprotein (HDL), blood samples were collected in clot activator gel tubes. The serum was separated by centrifuging the blood samples at 5000 rpm for 10 minutes. Serum biochemical parameters were then measured by using commercially available reagent kits.” for “animals.”
# [3] = tested on: hypertension induced rats; test: Plasma lipid profile of hypertension induced rats; conditions: captopril 20 mg/kg daily for three weeks, mean ± SD of 6
# Method: as §1, with “animals. For the estimation of alanine transaminase (ALT), aspartate transaminase (AST), alkaline phosphatase (ALP), total cholesterol, triglycerides, low-density lipoprotein (LDL) and high density lipoprotein (HDL), blood samples were collected in clot activator gel tubes. The serum was separated by centrifuging the blood samples at 5000 rpm for 10 minutes. Serum biochemical parameters were then measured by using commercially available reagent kits.” for “animals.”
# [4] = tested on: hypertension induced rats; test: GSH and SOD in tissue homogenates (liver, heart, kidney) of hypertension induced rats
# Method: as §1, with “animals. After collecting the blood samples from the rats, their abdominal cavity was opened; heart, liver and kidney were dissected out and homogenized in Tris-HCl buffer solution to make a 20% homogenate. Glutathione (GSH) and superoxide dismutase (SOD) were determined using the method described by Ellman & Misra for assessing the oxidative damage parameters in some organs.” for “animals.”
# [5] = serum, captopril 20 mg/kg daily for three weeks, mean ± SD of 6
# [6] = heart homogenate, captopril 20 mg/kg, mean ± SD of 6
# [7] = kidney homogenate, captopril 20 mg/kg, mean ± SD of 6
# [8] = liver homogenate, captopril 20 mg/kg, mean ± SD of 6
compound,measurement,setting,value
"C[C@H](CS)C(=O)N1CCC[C@H]1C(=O)O [Captopril, captopril]",Diastolic BP,[1],95.56 ± 10.5a* mm Hg
same,Heart rate,[1],328.86 ± 36.14a* beats/min
same,Systolic BP,[1],121.45 ± 10.9a* mm Hg
same,"levels of AST, ALT, ALP and lipid profile, in words",[2],brought back significantly to near normal
same,ALP,[2]; [5],132.12 ± 17.41a* IU/L
same,ALT,[2]; [5],85.44 ± 10.33a* IU/L
same,AST,[2]; [5],45.03 ± 5.44a* IU/L
same,CHOLESTEROL,[3],135.42 ± 13.41a* mg/dL
same,HDL,[3],41.46 ± 4.55a* mg/dL
same,LDL,[3],89.23 ± 9.8a* mg/dL
same,TRIGLYCERIDES,[3],106.41 ± 9.52a* mg/dL
same,Heart GSH,[4]; [6],38.78 ± 4.69a^ mM/L
same,Heart SOD,[4]; [6],68.92 ± 9.08a^@ U/mg
same,Kidney GSH,[4]; [7],31.04 ± 2.78a^@ mM/L
same,Kidney SOD,[4]; [7],67.96 ± 6.08a^@ U/mg
same,Liver GSH,[4]; [8],28.92 ± 4.12a^ mM/L
same,Liver SOD,[4]; [8],42.67 ± 5.62a^ U/mg
same,"levels of enzymic antioxidants, in words",[4]; tissue homogenates,retained to near normal values significantly
